Source: patent US12642870B2, “Compositions and methods for delivery of nucleic acids” (Poseida Therapeutics, Inc., priority 2020, dated 2026)

Assays:
[1] = Physical characterisation of DNA-containing LNPs (DLS, NTA, zeta potential); assay type: physicochemical; conditions: nano-pB-EF1a-GFP DNA LNPs: compound/DOPE/Cholesterol/DMG-PEG2000 38.0/50.0/10.0/2.0, lipid:DNA 45:1 (w/w)
Method: LNP compositions of the present disclosure comprising DNA, a nanoplasmid encoding a piggyBac transposon, wherein the piggyBac transposon comprised GFP under control of the EF1a promoter (herein referred to as the nano-pB-EF1a-GFP), and one of COMPOUNDS 1-8 were prepared as described in Example 3 by combining one of COMPOUNDS 1-8, the phospholipid DOPE, the structural lipid cholesterol (Chol) and 1,2-dimyristoyl-sn-glycerol methoxypolyethylene glycol (DMG-PEG2000) in the following percentages in Table 20: […]

[2] = test system: HEK293T cells; assay: In vitro LNP delivery of eGFP mRNA to adherent cells; assay type: cell-based; conditions: 0.125 μg eGFP mRNA per well, 24 hr, flow cytometry, LNP 41.44/45.85/10.0/2.7, lipid:RNA 40:1
Method: HEK293T cells were seeded in 96 well plates and grown to 70% confluence in DMEM+10% FBS] under a 5% CO2 atmosphere at 37° C. A 0.125 μg amount of 5′-CleanCap-eGFP mRNA (TriLink Biotech) formulated with LNP compositions comprising COMPOUNDS 1-4 as prepared in Example 3 at the following percentages in Table 10 was added to each well.
After incubating for 24 hr, cells were imaged for GFP expression with a Leica fluorescence microscope and then detached from 96 well plate to quantitate expression by flow cytometry.

[3] = test system: BALB/C mice; assay: In vivo intramuscular LNP delivery of fLuciferase mRNA, bioluminescent imaging; conditions: for Ave flux (p/s) / Avg IM flux n = 2: intramuscular 20 μg fLuciferase mRNA; for Ave flux (p/s): LNP COMPOUND 2/DOPE/Cholesterol/DMG-PEG2000 32.411/32.411/32.411/2.77; for Avg IM flux n = 2: right hind limb, BLI at 4 hr, LNP compound/DOPE/Cholesterol/DMG-PEG2000 33.5/32.0/33.5/1.0, lipid:RNA 25:1
Method: (§1) Adult female BALB/C mice (n=2/group) were intramuscularly administered in the right hind limb of each mouse 20 μg of 5′-CleanCap-fLuciferase mRNA (TriLink Biotech) formulated with LNP composition comprising COMPOUND 2 as prepared according to Example 2 in the following percentages shown in Table 16:
The location and extent of luciferase expression in treated and untreated mice were determined at 4 hr and 24 hr by bioluminescent imaging (BLI) of anesthetized mice using an IVIS Lumina in vivo imaging system (Perkin Elmer) according to the manufacturer's instructions. Briefly, mice were anesthetized using isoflurane in oxygen, and placed supine on a heated stage. Mice were then administered D-luciferin (Perkin-Elmer #122799) IP, and BLI was performed.
as §1, with “In another experiment, adult female” for “Adult female”, “comprising one of COMPOUNDS 3-8” for “comprising COMPOUND 2”, “Example 3” for “Example 2”, “Table 18:” for “Table 16:”
The location and extent of luciferase expression in treated and untreated mice were determined at 4 hr by bioluminescent imaging (BLI) of anesthetized mice as described above.

[4] = test system: Resting T-cells; assay: LNP delivery of nano-pB-EF1a-GFP DNA to resting T-cells; assay type: cell-based; conditions: nano-pB-EF1a-GFP DNA LNPs 0.38:0.5:0.1:0.02, lipid:nucleic acid 45:1, 24 hr
Source text: The experiments described in this example used CD4/CD8 positive T-cells isolated from a leukapheresis product from a healthy donor.

[5] = test system: Resting T-cells; assay: LNP delivery of eGFP mRNA to resting T-cells; assay type: cell-based; conditions: eGFP mRNA LNPs 0.4144:0.4585:0.1:0.027, lipid:nucleic acid 40:1, 0.5 ug mRNA per well, 24 hrs
Method: In one experiment, LNPs of the present disclosure comprising one of COMPOUNDS 1-4, DOPE, Cholesterol and DMG-PEG2000 at a molar ratio of 0.4144:0.4585:0.1:0.027 and further comprising Cleancap mRNA encoding eGFP were formed on a NanoAssemblr® (Precision Nanosystems). […] Resting T-cells were treated with varying amounts of the four LNP composition and at 24 hrs, the cells were analyzed to determine the percentage of cells that were viable and that expressed […]. The results of the analysis are shown in Table 12 for a dose of 0.5 ug mRNA per well.

[6] = Physical characterisation of mRNA-containing LNPs (DLS, NTA, zeta potential); assay type: physicochemical; conditions: Fluc mRNA LNPs: compound/DOPE/Cholesterol/DMG-PEG2000 41.44/45.85/10/2.7, lipid:RNA 40:1 (w/w)
Method: A series of ten multi-component LNP compositions of the present disclosure comprising exemplary compounds of Formula (I) was prepared by combining various percentages of an exemplary compound of Formula (I), the phospholipid DOPE, the structural lipid cholesterol (Chol) and 1,2-dimyristoyl-sn-glycerol methoxypolyethylene glycol (DMG-PEG2000; Avanti Polar Lipids, Alabaster, Alabama, USA).
Individual 25 mg/ml stock solutions were prepared by solubilizing the lipids in 200-proof HPLC-grade ethanol and stock solutions were stored at −80° C. until formulated. At the time of formulation, the lipid stock solutions were briefly allowed to equilibrate to room temp and then placed on a hot plate maintained at a temperature range of 50-55° C.
A 1 mg/mi solution of the desired mRNA to be incorporated into the LNPs was added to 150 mM sodium acetate buffer (pH 5.2) to form a stock solution and kept on ice. The lipid phase was mixed with the aqueous m RNA phase inside a microfluidic chip using a NanoAssemblr® instrument (Precision Nanosystems, Vancouver, BC, Canada) according to the manufacturer's instructions to form LNP compositions comprising encapsulated mRNAs.
The resultant mRNA LNP compositions were then transferred to a Repligen Float-A-Lyzer dialysis device—having a molecular weight cut off (MWCO) of 8-10 kDa (Spectrum Chemical Mfg. Corp, CA, USA) and processed by dialysis against phosphate buffered saline (PBS) (dialysate:dialysis buffer volume at least 1:200 v/v), pH 7.4 overnight at 4° C. (or alternatively room temperature for at least 4 hours), to remove the 25% ethanol and achieve a complete buffer exchange. In some experiments the LNPs were further concentrated by in an Amicon® Ultra-4 centrifugal filter unit, MWCO-30 kDa (Millipore Sigma, USA) spun at ˜4100×g in an ultracentrifuge. The mRNA LNPs were then stored at 4° C. until further use.
A series of multicomponent LNP compositions comprising one of COMPOUNDS 1-8 described in Example 1 and the mRNA encoding flue was prepared according to Example 2 and the physical characteristics of the resulting LNPs were analyzed.
In a separate experiment, LNP compositions of the present disclosure comprising mRNA encoding firefly luciferase (hereafter “Fluc”; TriLink) and COMPOUNDS 1-8 were prepared as described in Example 2 by combining one of COMPOUNDS 1-8, the phospholipid DOPE, the structural lipid cholesterol (Chol) and 1,2-dimyristoyl-sn-glycerol methoxypolyethylene glycol (DMG-PEG2000) in the percentages presented in Table 8: […]

[7] = test system: HEK293T cells; assay: In vitro LNP delivery of nano-pB-EF1a-GFP DNA to adherent cells; assay type: cell-based; conditions: 0.5 μg nano-pB-EF1a-GFP DNA per well in LNPs, flow cytometry
Method: HEK293T cells were seeded in 96 well plates and grown to 70% confluence in [DMEM+10% FBS] under a 5% CO2 atmosphere at 37° C. A 0.5 μg amount of nano-pB-EF1a-GFP DNA formulated with LNP compositions comprising COMPOUNDS 1, 3 & 4 as prepared in Examples 3 and 8 was added to each well. Following treatment with the LNPs, the cells were imaged for GFP+expression with a Leica fluorescence microscope and then detached from 96 well plate to quantitate expression by flow cytometry.

[8] = test system: TF1a cells; assay: Genetic modification of suspension cell line by LNP-delivered nanoplasmid transposon; assay type: cell-based; conditions: TF1a cells stably expressing SPB transposase; nanoplasmid transposon LNP 0.38:0.5:0.1:0.02; Day 6, flow cytometry
Method: In general, TF1a cells (a suspension cell line) were engineered to stably express the SPB transposase. Cell were plated at 5e5/ml. LNP comprising a nanoplasmid transposon coding for eGFP under control of the EF1a […] were added to each well at a concentration of […] (0.125 ug total) of DNA per well. Medium was exchanged and cells were split by spinning cells down in a v-bottom plate and resuspending cells in fresh RPMI+10% FBS+2 ug/ml Puromycin media on D4 post LNP addition). Day=6, cells were assessed for GFP expression by epifluorescence microscopy and flow cytometry.
For example, LNP compositions comprising COMPOUND 3 were prepared comprising COMPOUND 3, DOPE, Cholesterol and DMG-PEG2000 at a molar ratio of 0.38:0.5:0.1:0.02 and the nanoplasmid transposon and cells were assessed at Day 6 for GFP expression by epifluorescence microscopy and flow cytometry.

With `CC(C)C(CCC1CCC(C(=O)NCCCCCCNC(=O)C2CCC(CCC(SCCN(C)C)C(C)C)C(SCCN(C)C)C2)CC1SCCN(C)C)SCCN(C)C` (stereo not shown) [Compound 2] the “Diameter (DLS; nm)” value [1] was 80.6 nm, the “Diameter (NTA; nm)” value [1] was 105.0 nm and the PDI [1] was 0.221. For the same molecule, the “Zeta Potential (mV)” value [1] was −0.02 mV, the “% Viable GFP+” value [2] was 17.5% and the “Ave flux (p/s)” value ([3]; Lipid:RNA 25:1, 4 hr) was 4.58E+6 p/s. For the same molecule, the “Ave flux (p/s)” value ([3]; Lipid:RNA 25:1, 24 hr) was 3.53E+6 p/s, the “Ave flux (p/s)” value ([3]; Lipid:RNA 50:1, 4 hr) was 9.67E+5 p/s and the “Ave flux (p/s)” value ([3]; Lipid:RNA 50:1, 24 hr) was 8.09E+5 p/s. For the same molecule, the “location of luciferase expression (BLI)” value ([3]; intramuscular 20 μg fLuciferase mRNA in right hind limb) was “detected by BLI predominantly at the injection site”, the “% Viable GFP+” value [4] was 4.4% and the “% Viable GFP+” value [5] was 5.5%. For the same molecule, the “Diameter (DLS; nm)” value [6] was 79.6 nm, the “Diameter (NTA; nm)” value [6] was 113.8 nm and the PDI [6] was 0.259. The “Total Particles/ml” value [6] was 2.97E+10 Particles/ml and the “Zeta Potential (mV)” value [6] was −0.19 mV.
With `CC(C)C(CCC(C)C(CCC1CCC(C(=O)NCCCCCCCCCCCCNC(=O)C2CCC(CCC(SCCN(C)C)C(C)CCC(SCCN(C)C)C(C)C)C(SCCN(C)C)C2)CC1SCCN(C)C)SCCN(C)C)SCCN(C)C` (stereo not shown) [Compound 3] the “% Viable GFP+” value [2] was 19.4%, the “Avg IM flux n = 2” value [3] was 5.8E+6 and the “% Viable GFP+” value [7] was 97.1%. The “% Viable GFP+” value [4] was 18.0%, the “% Viable GFP+” value [5] was 10.9% and the “cells positive for GFP expression” value [8] was about 9.8%.
With `CC(C)C(CCC1CCC(C(=O)NCCCCCCCCCCCCNC(=O)C2CCC(CCC(SCCN(C)C)C(C)C)C(SCCN(C)C)C2)CC1SCCN(C)C)SCCN(C)C` (stereo not shown) [Compound 4] the “% Viable GFP+” value [2] was 90.1%, the “Avg IM flux n = 2” value [3] was 2.07E+6 and the “% Viable GFP+” value [7] was about 17.1%. The “% Viable GFP+” value [4] was 2.3% and the “% Viable GFP+” value [5] was 2.9%.
